Key:
Assay type in all cases: functional
CCRF-CEM = test: Cytotoxicity against human CCRF-CEM cells; conditions: read-out: Log10LC50 (converted)
HL-60(TB) = test: Cytotoxicity against human HL-60(TB) cells; conditions: read-out: Log10LC50 (converted)
K562 = test: Cytotoxicity against human K562 cells; conditions: read-out: Log10LC50 (converted)
MOLT-4 = test: Cytotoxicity against human MOLT4 cells; conditions: read-out: Log10LC50 (converted)
RPMI-8226 = test: Cytotoxicity against human RPMI8226 cells; conditions: read-out: Log10LC50 (converted)
SR = test: Cytotoxicity against human SR cells; conditions: read-out: Log10LC50 (converted)
A549 = test: Cytotoxicity against human A549 cells; conditions: read-out: Log10LC50 (converted)
EKVX = test: Cytotoxicity against human EKVX cells; conditions: read-out: Log10LC50 (converted)
HOP-18 = test: Cytotoxicity against human HOP18 cells; conditions: read-out: Log10LC50 (converted)
HOP-62 = test: Cytotoxicity against human HOP62 cells; conditions: read-out: Log10LC50 (converted)
HOP-92 = test: Cytotoxicity against human HOP92 cells; conditions: read-out: Log10LC50 (converted)
NCI-H226 = test: Cytotoxicity against human NCI-H226 cells; conditions: read-out: Log10LC50 (converted)
NCI-H23 = test: Cytotoxicity against human NCI-H23 cells; conditions: read-out: Log10LC50 (converted)
[1] = Cytotoxicity against human NCI-H322 cells; conditions: read-out: Log10LC50 (converted)
NCI-H460 = test: Cytotoxicity against human NCI-H460 cells; conditions: read-out: Log10LC50 (converted)
NCI-H522 = test: Cytotoxicity against human NCI-H522 cells; conditions: read-out: Log10LC50 (converted)
[2] = Cytotoxicity against human LXFL 529L cells; conditions: read-out: Log10LC50 (converted)
DMS-114 = test: Cytotoxicity against human DMS114 cells; conditions: read-out: Log10LC50 (converted)
DMS-273 = test: Cytotoxicity against human DMS273 cells; conditions: read-out: Log10LC50 (converted)
COLO 205 = test: Cytotoxicity against human COLO205 cells; conditions: read-out: Log10LC50 (converted)
HCC 2998 = test: Cytotoxicity against human HCC2998 cells; conditions: read-out: Log10LC50 (converted)
HCT-116 = test: Cytotoxicity against human HCT116 cells; conditions: read-out: Log10LC50 (converted)
HCT-15 = test: Cytotoxicity against human HCT15 cells; conditions: read-out: Log10LC50 (converted)
HT-29 = test: Cytotoxicity against human HT-29 cells; conditions: read-out: Log10LC50 (converted)
KM12 = test: Cytotoxicity against human KM12 cells; conditions: read-out: Log10LC50 (converted)
KM-20L2 = test: Cytotoxicity against human KM20L2 cells; conditions: read-out: Log10LC50 (converted)
SW-620 = test: Cytotoxicity against human SW620 cells; conditions: read-out: Log10LC50 (converted)
SF-268 = test: Cytotoxicity against human SF268 cells; conditions: read-out: Log10LC50 (converted)
SF-295 = test: Cytotoxicity against human SF295 cells; conditions: read-out: Log10LC50 (converted)
SF-539 = test: Cytotoxicity against human SF539 cells; conditions: read-out: Log10LC50 (converted)
SNB-19 = test: Cytotoxicity against human SNB19 cells; conditions: read-out: Log10LC50 (converted)
SNB-75 = test: Cytotoxicity against human SNB75 cells; conditions: read-out: Log10LC50 (converted)
SNB-78 = test: Cytotoxicity against human SNB78 cells; conditions: read-out: Log10LC50 (converted)
U-251 = test: Cytotoxicity against human U251 cells; conditions: read-out: Log10LC50 (converted)
XF498 = test: Cytotoxicity against human XF498 cells; conditions: read-out: Log10LC50 (converted)
LOX IMVI = test: Cytotoxicity against human LOXIMVI cells; conditions: read-out: Log10LC50 (converted)
Malme-3M = test: Cytotoxicity against human MALME-3M cells; conditions: read-out: Log10LC50 (converted)
M14 = test: Cytotoxicity against human M14 cells; conditions: read-out: Log10LC50 (converted)
SK-MEL-2 = test: Cytotoxicity against human SK-MEL-2 cells; conditions: read-out: Log10LC50 (converted)
SK-MEL-28 = test: Cytotoxicity against human SK-MEL-28 cells; conditions: read-out: Log10LC50 (converted)
SK-MEL-5 = test: Cytotoxicity against human SK-MEL-5 cells; conditions: read-out: Log10LC50 (converted)
UACC-257 = test: Cytotoxicity against human UACC257 cells; conditions: read-out: Log10LC50 (converted)
UACC-62 = test: Cytotoxicity against human UACC62 cells; conditions: read-out: Log10LC50 (converted)
IGROV-1 = test: Cytotoxicity against human IGROV1 cells; conditions: read-out: Log10LC50 (converted)
OVCAR-3 = test: Cytotoxicity against human OVCAR-3 cells; conditions: read-out: Log10LC50 (converted)
OVCAR-4 = test: Cytotoxicity against human OVCAR4 cells; conditions: read-out: Log10LC50 (converted)
OVCAR-5 = test: Cytotoxicity against human OVCAR5 cells; conditions: read-out: Log10LC50 (converted)
OVCAR-8 = test: Cytotoxicity against human OVCAR8 cells; conditions: read-out: Log10LC50 (converted)
SK-OV-3 = test: Cytotoxicity against human SKOV3 cells; conditions: read-out: Log10LC50 (converted)
[3] = Cytotoxicity against human 786-O cells; conditions: 786-0, read-out: Log10LC50 (converted)
A498 = test: Cytotoxicity against human A498 cells; conditions: read-out: Log10LC50 (converted)
ACHN = test: Cytotoxicity against human ACHN cells; conditions: read-out: Log10LC50 (converted)
CAKI-1 = test: Cytotoxicity against human Caki1 cells; conditions: read-out: Log10LC50 (converted)
RXF 393 = test: Cytotoxicity against human RXF393 cells; conditions: read-out: Log10LC50 (converted)
SN12C = test: Cytotoxicity against human SN12C cells; conditions: read-out: Log10LC50 (converted)
TK-10 = test: Cytotoxicity against human TK10 cells; conditions: read-out: Log10LC50 (converted)
UO-31 = test: Cytotoxicity against human UO31 cells; conditions: read-out: Log10LC50 (converted)
DLD-1 = test: Cytotoxicity against human DLD1 cells; conditions: read-out: Log10LC50 (converted)
M19-MEL = test: Cytotoxicity against human M19-MEL cells; conditions: read-out: Log10LC50 (converted)
[4] = Cytotoxicity against human RXF631 cells; conditions: RXF 631, read-out: Log10LC50 (converted)

SMILES: COC(=O)[C@@]12OC[C@]34[C@H]([C@@H](O)[C@@H]1O)[C@@]1(C)[C@H](O)C(=O)C=C(C)[C@@H]1C[C@H]3OC(=O)[C@H](OC(C)=O)[C@@H]24 [ISOBRUCEIN B]
- CC50 (CCRF-CEM): 42.7 µM
- CC50 (HL-60(TB)): 0.347 µM
- CC50 (K562): 11 µM
- CC50 (MOLT-4): 42.7 µM
- CC50 (RPMI-8226): 42.7 µM
- CC50 (SR): 42.7 µM
- CC50 (A549): 42.7 µM
- CC50 (EKVX): 42.7 µM
- CC50 (HOP-18): 42.7 µM
- CC50 (HOP-62): 42.7 µM
- CC50 (HOP-92): 42.7 µM
- CC50 (NCI-H226): 14.1 µM
- CC50 (NCI-H23): 3.47 µM
- CC50 [1]: 42.7 µM
- CC50 (NCI-H460): 14.1 µM
- CC50 (NCI-H522): 6.17 µM
- CC50 [2]: 42.7 µM
- CC50 (DMS-114): 1.91 µM
- CC50 (DMS-273): 2.69 µM
- CC50 (COLO 205): 5.75 µM
- CC50 (HCC 2998): 1.58 µM
- CC50 (HCT-116): 18.2 µM
- CC50 (HCT-15): 33.1 µM
- CC50 (HT-29): 42.7 µM
- CC50 (KM12): 20.9 µM
- CC50 (KM-20L2): 42.7 µM
- CC50 (SW-620): 39.8 µM
- CC50 (SF-268): 40.7 µM
- CC50 (SF-295): 32.4 µM
- CC50 (SF-539): 1.29 µM
- CC50 (SNB-19): 42.7 µM
- CC50 (SNB-75): 14.1 µM
- CC50 (SNB-78): 42.7 µM
- CC50 (U-251): 42.7 µM
- CC50 (XF498): 12 µM
- CC50 (LOX IMVI): 8.51 µM
- CC50 (Malme-3M): 3.02 µM
- CC50 (M14): 2.29 µM
- CC50 (SK-MEL-2): 7.08 µM
- CC50 (SK-MEL-28): 3.39 µM
- CC50 (SK-MEL-5): 2.09 µM
- CC50 (UACC-257): 20.9 µM
- CC50 (UACC-62): 5.37 µM
- CC50 (IGROV-1): 42.7 µM
- CC50 (OVCAR-3): 42.7 µM
- CC50 (OVCAR-4): 11 µM
- CC50 (OVCAR-5): 42.7 µM
- CC50 (OVCAR-8): 21.9 µM
- CC50 (SK-OV-3): 42.7 µM
- CC50 [3]: 33.1 µM
- CC50 (A498): 5.75 µM
- CC50 (ACHN): 42.7 µM
- CC50 (CAKI-1): 42.7 µM
- CC50 (RXF 393): 10 µM
- CC50 (SN12C): 42.7 µM
- CC50 (TK-10): 42.7 µM
- CC50 (UO-31): 42.7 µM
- CC50 (DLD-1): 42.7 µM
- CC50 (M19-MEL): 4.79 µM
- CC50 [4]: 42.7 µM

Reference: ChEMBL document CHEMBL1159031, “Cytotoxic quassinoids from Cedronia granatensis” (1992)
